# From patent US4616028A, “Substituted 2,3,4,9-tetrahydro-1H-carbazole-1-acetic acid derivatives, compositions and use” (American Home Products Corporation, priority 1985, dated 1986)
# Assays:
# Adjuvant Edema = assay: Preventative Adjuvant Edema (Freund's complete adjuvant, hind paw volume); type: in vivo, rat (male Sprague Dawley); details: for Preventative Adjuvant Edema % Inhibition: 25 mg/kg, p.o., rat; for ED50: ED50, rat (second results table)
# Description: This test is a primary screen for anti-inflammatory drugs.
# Male Sprague Dawley rats (180-200 g) are used. The animals have free access water but food is withdrawn 18 hours before testing.
# Drug Preparations and Administration:
# Freund's complete adjuvant is prepared by suspending 5 mg killed and dried Mycobacterium butyricum (Difco) in 1 ml liquid paraffin. The test compounds are dissolved in distilled water or suspended in distilled water with a few drops of Tween 80 according to their solubility. For primary screening all drugs are administrated by gastric lavage at the arbitrary dosage of 100 mg/kg, p.o. in a volume of 0.5 ml/100 g body weight to groups of 10 animals.
# The method is essentially that described by Wax et al., J. Pharmacol. Exp. Ther., 192, 166-171 (1975). Groups of rats are injected intradermally in the left hind paw with 0.1 ml of Freund's complete adjuvant. The test compound or vehicle is administrated before the adjuvant, 24 hours and 48 hours after the adjuvant (day 0, 1 and 2). The injected hind paw volume is measured before the injection of adjuvant and 24 hrs. after the last drug administration (day 3) by means of a plethysmometer (Buxco Electronics Inc.). The difference between then hind paw volume on day 0 and day 3 represents the edema volume. Phenylbutazone (50 mg/kg, p.o.) is included as a positive control.
# The mean edema volume (expressed as ml±SEM) is calculated for each group and the percentage protection conferred by the drug is calculated:
# where c is the mean edema volume for the untreated controls and t is the mean edema volume for the drug treated group.
# Phenylquinone Writhing = assay: Phenylquinone-induced writhing in mice; type: in vivo, mouse (male Swiss albino); details: for Phenylquinone Writhing in Mice % Inhibition: p.o.; for ED50: ED50, mice (second results table)
# Description: A further test used to determine the utility of the compounds of the present invention is designated: DRUG EFFECTS ON PHENYLQUINONE-INDUCED WRITHING IN MICE […]
# The objective of this test is to determine the ability of test drugs to inhibit the nociceptive (pain) response of mice injected with a chemical irritant. This test is a primary screen for both peripheral and centrally acting analgesic drugs.
# Male Swiss albino mice (15-25 g). The animals are fasted for 18 hours prior to use but have free access to water.
# (§1) Drug Preparation and Administration:
# Drugs are dissolved or suspended according to their solubility in 0.5% methyl cellulose or 0.5% Tween 80. They are administered by gastric lavage in a volume of 5 ml/kg. For primary screening all drugs are administered at the arbitrary dosage of 200 mg/kg, p.o. to a group of 10 mice.
# A modification of the method of Siegmund at el., Proc. Soc. Exp. Biol. Med., 95, 729-731 (1957) is used. Groups of 5 mice are dosed with the test compound or vehicle control. Sixty minutes later the animals are injected i.p. with 0.3 ml/20 g body weight of a 0.02% solution of phenylquinone (PBQ; 2-phenyl-1,4-benzoquinone) and placed in individual observation boxes. The numer of writhing or abdominal squirming movements made by each mouse during the following 15 min. period is counted. The experiment is repeated with another group of 5 mice and the mean number of writhes per mouse for a group of 10 mice is calculated.
# Drug treated and vehicle-treated control groups are compared and the percentage protection conferred by the drug is calculated:
# Percentage protection=(c-t)100/c […]
# where c=mean number of writhes in the control group where t=mean number of writhes in the test drug group
# inflamed paw = assay: Paw Pressure Test in the Rat (Freund's adjuvant inflamed paw, pain threshold); type: in vivo, rat (male Sprague Dawley); details: po; ED50, rat (second results table)
# Text: A still further test used to determine the utility of the compounds of the present invention is designated: PAW PRESSURE TEST IN THE RAT
# The objective of this test is to assess the potency of peripheral and central acting drugs in inhibiting the reaction of rats to painful stimulation applied to an inflamed paw.
# Male Sprague Dawley rats (180-200 g) are used. The animals are fasted overnight prior to drug administration.
# as §1
# Freund's Complete Adjuvant (FCA) is prepared by suspending 5 mg killed and dried mycobacterium butyricum (Difco) in 1 ml liquid paraffin. The test compounds are dissolved, or suspended with a few drops of Tween 80, in distilled water according to their solubility. They are administered by gastric gavage in a volume of 0.5 ml/100 g body weight to groups of 10 animals.
# Ten rats are used per group. The method is essentially that described by Randall, et al., Arch. Int. Pharmacodyn. 111, 409 (1957) and the apparatus which is used to apply pressure to the paw (Analgesy-meter for the rat paw, Ugo Basile from Coulbourn Instruments) is a modification of that described by Gilfoil et al., J. Pharmacol, 142, 1 (1963). The instrument is basically a device which exerts a force that increases at a constant rate. The force is continuously monitored by a pointer moving along a linear scale and is measured in grams. The inflammatory reaction is induced in the left hind paw of rats by injecting 0.1 ml of Freund's adjuvant intradermally. The test compound or vehicle is administered 24 hours after the adjuvant. Prior to drug administration the rats are selected for their paw sensitivity. Rats responding to a pain threshold greater than 10 g applied to the inflamed paw are rejected. The pain threshold (vocalization) is determined 1 and 3 hours later in the inflamed paw and the normal paw of the treated and control groups. The higher of the 2 readings will be considered as representative of the drug effect on the pain threshold.
# Presentation of results and Criteria for Activity:
# Each animal which has a reading 1.5 times greater than the mean reading of the control-group will be considered as responsive to treatment. The number of animals showing an analgesic effect is then determined in each group.
# The ED50 (dose which causes analgesia in 50% of the animals) using at least 3 doses is then determined, by the method described in Litchfield et al., J. Pharmacol. Exp. Ther., 96, 99 (1949).
# [1] = po, 72 h, rat (second results table), read-out: Preventative Adjuvant Edema percent inhibition
# [2] = Mus musculus, po, mice (second results table), read-out: Phenylquinone Writhing in Mice percent inhibition
Compound,"ED50 (Phenylquinone Writhing; Mus musculus, po) [mg/kg]",inhibition in vivo at 25 mg/kg (Adjuvant Edema; [1]) [%],inhibition in vivo at 25 mg/kg (Phenylquinone Writhing; [2]) [%],further results
"CCc1cccc2c3c([nH]c12)C(CC)(CC(=O)O)CCC3Cc1ccccc1 (single isomer, unassigned) [Example 2 Isomer B, 1,8-Diethyl-2,3,4,9-tetrahydro-4-(phenylmethyl)-1H-carbazole-1-acetic Acid]",–,–,–,Preventative Adjuvant Edema % Inhibition (Adjuvant Edema): 38%; Phenylquinone Writhing in Mice % Inhibition (Phenylquinone Writhing; 25 mg/kg): 55%
"CCCC1CCC(CC)(CC(=O)O)c2[nH]c3c(CC)cccc3c21 (stereo not shown) [4-propyl-1,8-diethyl-2,3,4,9-tetrahydro-1H--carbazole-1-acetic acid, reference compound]",–,–,–,Phenylquinone Writhing in Mice % Inhibition (Phenylquinone Writhing; 25 mg/kg): 15%; Phenylquinone Writhing in Mice % Inhibition (Phenylquinone Writhing; 200 mg/kg): 56%
"C=CC[C@@H]1CC[C@](CC)(CC(=O)O)c2[nH]c3c(C)cccc3c21 (relative stereo) [Example 11, cis-1-ethyl-2,3,4,9-tetrahydro-8-methyl-4-(2-propenyl)-1H-carbazole-1-acetic acid]",8.3,–,–,ED50 (Adjuvant Edema; po): 8.5 mg/kg; ED50 (inflamed paw): 0.33 mg/kg
C=CC[C@@H]1CC[C@](CC)(CC(=O)O)c2[nH]c3ccc(CCCC)cc3c21 (relative stereo) [Example 8],10.6,–,–,"inhibition in vivo at 5 mg/kg (Adjuvant Edema; po, 72 h, dose 5 mg/kg, rat (second results table), read-out: Preventative Adjuvant Edema percent inhibition): 56%; ED50 (inflamed paw): 0.2 mg/kg"
C=CC[C@@H]1CC[C@](CC)(CC(=O)O)c2[nH]c3c(Br)ccc(C)c3c21 (relative stereo) [Example 33],4.5,27,–,ED50 (inflamed paw): 0.93 mg/kg
C=CC(C)(C)C1CCC(CC)(CC(=O)O)c2[nH]c3c(C)c(Cl)ccc3c21 (stereo not shown) [Example 35],–,30,28,–
C=CC[C@@H]1CC[C@](CC)(CC(=O)O)c2[nH]c3cccc(Cl)c3c21 (relative stereo) [Example 17],–,–,35,ED50 (Adjuvant Edema; po): 6.6 mg/kg
C=CC(C)(C)C1CCC(CC)(CC(=O)O)c2[nH]c3c(F)cccc3c21 (stereo not shown) [Example 23],–,16,41,–
C=CC[C@@H]1CC[C@](CC)(CC(=O)O)c2[nH]c3cc(Cl)ccc3c21 (relative stereo) [Example 20],5.1,–,–,ED50 (Adjuvant Edema; po): 5.4 mg/kg; ED50 (inflamed paw): 0.38 mg/kg
C=CC[C@@H]1CC[C@](CC)(CC(=O)O)c2[nH]c3c(C)c(F)ccc3c21 (relative stereo) [Example 29],12.3,–,–,ED50 (Adjuvant Edema; po): 6.4 mg/kg; ED50 (inflamed paw): 0.1 mg/kg
C=CC[C@@H]1CC[C@](CC)(CC(=O)O)c2[nH]c3ccc(F)cc3c21 (relative stereo) [Example 13],–,36,20,–
"CCc1cccc2c3c([nH]c12)C(CC)(CC(=O)O)CCC3Cc1ccccc1 (single isomer, unassigned) [Example 2 Isomer A, 1,8-Diethyl-2,3,4,9-tetrahydro-4-(phenylmethyl)-1H-carbazole-1-acetic Acid]",–,–,–,Preventative Adjuvant Edema % Inhibition (Adjuvant Edema): 6%; Phenylquinone Writhing in Mice % Inhibition (Phenylquinone Writhing; 25 mg/kg): 15%
C=CCC1CCC(C)(CC(=O)O)c2[nH]c3c(CC)cccc3c21 (stereo not shown) [Example 9],–,38,37,–
C=CC[C@@H]1CC[C@](CC)(CC(=O)O)c2[nH]c3cccc(Br)c3c21 (relative stereo) [Example 19],–,50,52,–
C=CC[C@@H]1CC[C@](CC)(CC(=O)O)c2[nH]c3c(C)ccc(Cl)c3c21 (relative stereo) [Example 38],5.4,48,–,–
C=CC[C@@H]1CC[C@](CC)(CC(=O)O)c2[nH]c3cc(Br)ccc3c21 (relative stereo) [Example 18],3.6,–,–,ED50 (Adjuvant Edema; po): 17.5 mg/kg
C=C(C)CC1CCC(CC)(CC(=O)O)c2[nH]c3ccccc3c21 (stereo not shown) [Example 24],–,56,29,–
C=CC[C@@H]1CC[C@](CC)(CC(=O)O)c2[nH]c3c(Cl)cc(Cl)cc3c21 (relative stereo) [Example 36],7.6,35,–,–
C=CC[C@@H]1CC[C@](CC)(CC(=O)O)c2[nH]c3c(C(C)C)cccc3c21 (relative stereo) [Example 10],–,43,27,–
C=CC[C@@H]1CC[C@](CC)(CC(=O)O)c2[nH]c3c(Br)cccc3c21 (relative stereo) [Example 14],–,–,38,ED50 (Adjuvant Edema; po): 28 mg/kg
C=CC[C@@H]1CC[C@](CC)(CC(=O)O)c2[nH]c3c(I)cccc3c21 (relative stereo) [Example 22],17,46,–,–
C=CC[C@@H]1CC[C@](CC)(CC(=O)O)c2[nH]c3c(F)cccc3c21 (relative stereo) [Example 15],–,–,27,ED50 (Adjuvant Edema; po): 13.3 mg/kg
C=CCC1CCC(CCC)(CC(=O)O)c2[nH]c3c(CC)cccc3c21 (stereo not shown) [Example 21],–,24,21,–
"C=CC[C@@H]1CC[C@](CC)(CC(=O)O)c2c1c1cccc(CC)c1n2C (relative stereo) [Example 43, cis-1,8-Diethyl-2,3,4,9-tetrahydro-9-methyl-4-(2-propenyl)-1H-Carbazole-1-acetic Acid]",–,–,–,"inhibition in vivo at 200 mg/kg (Phenylquinone Writhing; Mus musculus, po, dose 200 mg/kg, mice (second results table), read-out: Phenylquinone Writhing in Mice percent inhibition): 32%; ED50 (inflamed paw): 8 mg/kg"
C=CC[C@@H]1CC[C@](CC)(CC(=O)O)c2[nH]c3c(C)c(Br)ccc3c21 (relative stereo) [Example 37],3,34,–,–
